Measurements as given in the CheMixHub ionic liquid set.

Assay: xn = mol fraction of the nth substance listed
Conditions: for electrical conductivity: 101 kPa

O=C([O-])[O-].[Na+].[Na+] + CCCCCCCCCCCC[N+](C)(C)C.[Br-] + O
298.15 K
Conditions | electrical conductivity [S/m]
x1 = 0.0001801, x2 = 7.809e-05 | 0.2221
x1 = 0.0001801, x2 = 8.963e-05 | 0.2267
x1 = 0.0001801, x2 = 0.000101 | 0.2313
x1 = 0.0001801, x2 = 0.0001125 | 0.2359
x1 = 0.0001801, x2 = 0.0001241 | 0.2404
x1 = 0.0001801, x2 = 0.0001356 | 0.2449
x1 = 0.0001801, x2 = 0.0001466 | 0.2493
x1 = 0.0001801, x2 = 0.000158 | 0.2537
x1 = 0.0001801, x2 = 0.000169 | 0.2579
x1 = 0.0001801, x2 = 0.00018 | 0.2622
x1 = 0.0001801, x2 = 0.0001908 | 0.2663
x1 = 0.0001801, x2 = 0.0002018 | 0.2705
x1 = 0.0001801, x2 = 0.0002126 | 0.2745
x1 = 0.0001801, x2 = 0.0002234 | 0.278
x1 = 0.0001801, x2 = 0.000234 | 0.2806
x1 = 0.0001801, x2 = 0.0002447 | 0.2825
x1 = 0.0001801, x2 = 0.0002551 | 0.2841
x1 = 0.0001801, x2 = 0.0002658 | 0.2855
x1 = 0.0001801, x2 = 0.0002762 | 0.2868
x1 = 0.0001801, x2 = 0.0002867 | 0.288
x1 = 0.0001801, x2 = 0.0002986 | 0.2893
x1 = 0.0001801, x2 = 0.0003116 | 0.2908
x1 = 0.0001801, x2 = 0.000342 | 0.2939
x1 = 0.0001802, x2 = 0 | 0.1927
x1 = 0.0001802, x2 = 2.16e-06 | 0.1931
x1 = 0.0001802, x2 = 4.51e-06 | 0.1938
x1 = 0.0001802, x2 = 7.94e-06 | 0.1951
x1 = 0.0001802, x2 = 1.154e-05 | 0.1963
x1 = 0.0001802, x2 = 1.659e-05 | 0.1981
x1 = 0.0001802, x2 = 2.309e-05 | 0.2004
x1 = 0.0001802, x2 = 3.174e-05 | 0.2037
x1 = 0.0001802, x2 = 4.31e-05 | 0.2082
x1 = 0.0001802, x2 = 5.483e-05 | 0.2128
x1 = 0.0001802, x2 = 6.655e-05 | 0.2175
x1 = 0.001798, x2 = 0.0001498 | 1.359
x1 = 0.001798, x2 = 0.0001618 | 1.363
x1 = 0.001798, x2 = 0.0001776 | 1.367
x1 = 0.001798, x2 = 0.0001934 | 1.371
x1 = 0.001798, x2 = 0.000209 | 1.374
x1 = 0.001798, x2 = 0.0002246 | 1.377
x1 = 0.001798, x2 = 0.0002401 | 1.38
x1 = 0.001798, x2 = 0.0002555 | 1.383
x1 = 0.001798, x2 = 0.0002702 | 1.386
x1 = 0.001798, x2 = 0.0002851 | 1.389
x1 = 0.001798, x2 = 0.0003037 | 1.393
x1 = 0.001798, x2 = 0.0003216 | 1.396
x1 = 0.001798, x2 = 0.0003394 | 1.399
x1 = 0.001798, x2 = 0.0003576 | 1.402
x1 = 0.001798, x2 = 0.0003752 | 1.405
x1 = 0.001798, x2 = 0.0003925 | 1.408
x1 = 0.001799, x2 = 0 | 1.335
x1 = 0.001799, x2 = 8.18e-06 | 1.333
x1 = 0.001799, x2 = 1.563e-05 | 1.333
x1 = 0.001799, x2 = 2.381e-05 | 1.333
x1 = 0.001799, x2 = 3.217e-05 | 1.333
x1 = 0.001799, x2 = 4.072e-05 | 1.334
x1 = 0.001799, x2 = 5.126e-05 | 1.335
x1 = 0.001799, x2 = 6.398e-05 | 1.338
x1 = 0.001799, x2 = 7.671e-05 | 1.34
x1 = 0.001799, x2 = 8.888e-05 | 1.343
x1 = 0.001799, x2 = 0.0001014 | 1.346
x1 = 0.001799, x2 = 0.0001138 | 1.349
x1 = 0.001799, x2 = 0.000126 | 1.352
x1 = 0.001799, x2 = 0.0001379 | 1.355

C[C@H](N)C(=O)O + CCCCCCCCCCCC[N+](C)(C)Cc1ccccc1.[Cl-] + O
electrical conductivity [S/m]
Conditions | 293.15 K | 298.15 K | 303.15 K | 308.15 K | 313.15 K
x1 = 0.000902, x2 = 0 | 0.0002 | 0.000236 | 0.000271 | 0.00031 | 0.000356
x1 = 0.001774, x2 = 0 | 0.000272 | 0.000323 | 0.000378 | 0.000442 | 0.000511

NCC(=O)NCC(=O)O + CCCCCCCCCCCC[N+](C)(C)Cc1ccccc1.[Cl-] + O
x1 = 0.0008948, x2 = 0
Conditions | electrical conductivity [S/m]
293.15 K | 0.00137
298.15 K | 0.00165
303.15 K | 0.00198
308.15 K | 0.00239
313.15 K | 0.00284

CC(C)[C@H]1CC[C@H](C)C[C@@H]1O + CCCCCCCC[N+](CCCCCCCC)(CCCCCCCC)CCCCCCCC.[Br-] + [Cl-].[Cl-].[Co+2]
296.1 K, 101.3 kPa
Conditions | viscosity [mPa·s]
x2 = 0.2857, x3 = 0.1429 | 11900
x2 = 0.4, x3 = 0.2 | 22000
x2 = 0.4286, x3 = 0.1429 | 17800

CCCCCC[n+]1ccn(C)c1.c1nnn[n-]1 + CCCCCCCC[P+](CC)(CC)CC.O=S(=O)([N-]S(=O)(=O)C(F)(F)F)C(F)(F)F
100 kPa
Conditions | viscosity [mPa·s]
278.15 K, x2 = 0.301 | 990
283.15 K, x2 = 0.597 | 409
283.15 K, x2 = 0.697 | 347
288.15 K, x2 = 0.4 | 414
298.15 K, x2 = 0.597 | 156
303.15 K, x2 = 0.4 | 156
303.15 K, x2 = 0.5 | 129
303.15 K, x2 = 0.899 | 90
308.15 K, x2 = 0.5 | 100
308.15 K, x2 = 0.597 | 93
308.15 K, x2 = 0.697 | 82
313.15 K, x2 = 0.697 | 66
318.15 K, x2 = 0.301 | 77
318.15 K, x2 = 0.4 | 74
318.15 K, x2 = 0.597 | 61
323.15 K, x2 = 0.1 | 86
323.15 K, x2 = 0.5 | 52
